In PubChem BioAssay (NCI) one finds GI50 and TGI data, which are given here for eleven compounds.

Among the test systems are SNB-75 CNS; MDA-MB-435; LOX IMVI melanoma; HCC-2998 colon; HL-60(TB) leukemia; TK-10 renal; UO-31 renal; OVCAR-5 ovarian; SF-268 CNS; MDA-MB-231 breast.
Test in all cases: inhibition of tumour cell growth, NCI panel, 48 h

Each structure is given as a SMILES string.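 Values below derive from 48-hour exposures of cells grown in 96-well plates, with endpoints linearly interpolated between the two concentrations bracketing the appropriate inhibition level. GI50 = concentration required for 50% inhibition of growth. At the TGI there is no net growth.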 A value given as a limit tells only on which side of the number the result lay.

Turning to `O=C(N/N=C\c1ccc(N(CCCl)CCCl)cc1)c1cccnc1`, the GI50 was 33.7 µM with SNB-75 CNS; 33.4 µM with MDA-MB-435; 21.3 µM in the assay on LOX IMVI melanoma; 55.5 µM in the assay on HCC-2998 colon; 3.39 µM with HL-60(TB) leukemia; 33.4 µM with TK-10 renal. Moreover, the GI50 with UO-31 renal was 14.1 µM; with OVCAR-5 ovarian it was over 100 µM; in the assay with SF-268 CNS, 27 µM; with MDA-MB-231 breast it was 24.8 µM. Moreover, the TGI with SNB-75 CNS was over 100 µM; in the assay on MDA-MB-435, over 100 µM; with LOX IMVI melanoma, over 100 µM; in the assay with HCC-2998 colon, over 100 µM; in the assay on HL-60(TB) leukemia it was 46.9 µM; in the assay on TK-10 renal, over 100 µM. Also, the TGI in the assay on UO-31 renal, in the assay on OVCAR-5 ovarian, with SF-268 CNS and with MDA-MB-231 breast was over 100 µM throughout.
Turning to `N/C(=C\c1ccc(/C=C(\NC(=O)c2ccccc2)c2nc3c([nH]2)C(=O)c2ccccc2C3=O)cc1)c1nc2c([nH]1)C(=O)c1ccccc1C2=O`, the TGI with SNB-75 CNS worked out at 18.8 µM; in the assay on LOX IMVI melanoma, 47.1 µM; with HL-60(TB) leukemia, 38.3 µM; in the assay with TK-10 renal, 51.7 µM; in the assay on UO-31 renal, 17.7 µM; in the assay on OVCAR-5 ovarian, 40.5 µM. Moreover, the TGI in the assay with SF-268 CNS was 30.6 µM.
In the case of `CN(CCO)CCC1COc2ccccc2O1` (stereo unspecified), the TGI in the assay on SNB-75 CNS, in the assay on MDA-MB-435, in the assay on LOX IMVI melanoma, in the assay on HCC-2998 colon, in the assay on HL-60(TB) leukemia and in the assay with TK-10 renal was over 10 µM throughout. In addition, the TGI in the assay on UO-31 renal, in the assay on OVCAR-5 ovarian, with SF-268 CNS and in the assay with MDA-MB-231 breast was over 10 µM throughout.
Consider `N#CC1(C#N)C(=O)c2ccncc2C1=O`, for which the TGI in the assay on SNB-75 CNS, with MDA-MB-435, in the assay on HCC-2998 colon, in the assay with HL-60(TB) leukemia, with UO-31 renal and in the assay with OVCAR-5 ovarian was over 100 µM each time. Moreover, the TGI in the assay on SF-268 CNS and in the assay with MDA-MB-231 breast was over 100 µM throughout.
With `N#C[S-].[Ce+3].c1ccc(-c2ccccn2)nc1.c1ccc(-c2ccccn2)nc1.c1ccc(-c2ccccn2)nc1`, the GI50 in the assay on SNB-75 CNS is 15.2 µM; with LOX IMVI melanoma, 4.2 µM; with HCC-2998 colon it was 18.3 µM; with TK-10 renal it was 11 µM; with UO-31 renal, 4.46 µM; with OVCAR-5 ovarian, 6.15 µM. Also, the TGI was over 100 µM in the assay on SNB-75 CNS; 63.7 µM in the assay on LOX IMVI melanoma; over 100 µM in the assay with HCC-2998 colon; 97.6 µM in the assay on TK-10 renal; 28.7 µM in the assay on UO-31 renal; 42.9 µM in the assay with OVCAR-5 ovarian.
As for `CCOC(=O)NC(=O)c1cn(CCN(CCO)C(=O)NCCCCCCNC(=O)N(CCO)CCn2cc(C(=O)NC(=O)OCC)c(=O)[nH]c2=O)c(=O)[nH]c1=O`, the TGI in the assay with SNB-75 CNS, in the assay with LOX IMVI melanoma, in the assay with HCC-2998 colon, in the assay with HL-60(TB) leukemia, in the assay on UO-31 renal and in the assay on OVCAR-5 ovarian was over 100 µM each time. The compound also registered a TGI in the assay on SF-268 CNS of over 100 µM.
On to `Brc1ccc2nc(-c3cccs3)nc(N3CCN(c4ccccc4)CC3)c2c1`, for which the TGI in the assay on SNB-75 CNS, in the assay on MDA-MB-435, in the assay on LOX IMVI melanoma, in the assay with HCC-2998 colon, in the assay with HL-60(TB) leukemia and with TK-10 renal was over 100 µM throughout. Also, the TGI in the assay on UO-31 renal, in the assay on OVCAR-5 ovarian, in the assay on SF-268 CNS and with MDA-MB-231 breast was over 100 µM in each case.
In the case of `COc1nc2ccc(Cl)c(C(O)c3ccccc3)c2nc1OC` (stereo unspecified), the TGI is over 100 µM in the assay with SNB-75 CNS; 42.8 µM with MDA-MB-435; 36.5 µM with LOX IMVI melanoma; 52.5 µM in the assay on HL-60(TB) leukemia; over 100 µM in the assay with TK-10 renal; over 100 µM in the assay on UO-31 renal. Further, the TGI in the assay with OVCAR-5 ovarian is over 100 µM; in the assay on SF-268 CNS, 84.5 µM; in the assay with MDA-MB-231 breast, 39.9 µM.
Turning to `COC(Cc1cc(C(O)(c2ccc(C(C)(C)C)cc2)c2cc(CC(OC)(c3cc(C(OC)(c4ccc(C(C)(C)C)cc4)c4ccc(C(C)(C)C)cc4)c(C)cc3C)c3cc(C(OC)(c4ccc(C(C)(C)C)cc4)c4ccc(C(C)(C)C)cc4)c(C)cc3C)c(C)cc2C)c(C)cc1C)(c1cc(C(OC)(c2ccc(C(C)(C)C)cc2)c2ccc(C(C)(C)C)cc2)c(C)cc1C)c1cc(C(OC)(c2ccc(C(C)(C)C)cc2)c2ccc(C(C)(C)C)cc2)c(C)cc1C`, the TGI in the assay with SNB-75 CNS, in the assay on MDA-MB-435, with LOX IMVI melanoma, in the assay on HCC-2998 colon, in the assay on HL-60(TB) leukemia and in the assay on TK-10 renal was over 75 µM in each case. The TGI in the assay on UO-31 renal, with OVCAR-5 ovarian, in the assay on SF-268 CNS and with MDA-MB-231 breast was over 75 µM in each case.
Take `COc1c(O)cc2c(c1O)C(=O)C(Cc1ccc(O)cc1)CO2` (stereo unspecified): the TGI in the assay with SNB-75 CNS is 91.9 µM; with MDA-MB-435, 76.8 µM; with LOX IMVI melanoma it was over 100 µM; with HL-60(TB) leukemia, over 100 µM; with TK-10 renal, over 100 µM; in the assay with UO-31 renal, over 100 µM. Also, the TGI in the assay with OVCAR-5 ovarian, with SF-268 CNS and in the assay with MDA-MB-231 breast was over 100 µM each time.
Consider `CC1=C/C(=N\NS(=O)(=O)c2ccc([N+](=O)[O-])cc2)CC(C)(C)C1`, for which the TGI in the assay with MDA-MB-435, in the assay with LOX IMVI melanoma, with HCC-2998 colon, in the assay on HL-60(TB) leukemia, with TK-10 renal and in the assay on UO-31 renal was over 100 µM in each case. In addition, the TGI in the assay with OVCAR-5 ovarian, in the assay with SF-268 CNS and in the assay with MDA-MB-231 breast was over 100 µM each time.
